# Test results reported in patent US20200255884A1, “METHOD OF DETECTION OF DNA END(S) AND ITS USE” (INTODNA SP. Z O.O., priority 2017, published 2020).
# Tested on: HeLa 21-4 cells
# Experiment: Combination of Procedures 1 and 2 for detection of DNA breaks in isolated chromatin of HeLa cells
# Format: cell-based
# Conditions: H2O2 4 mM, 30 minutes; control 6.0±0.1
# Protocol: In this Example, HeLa 21-4 cells (obtained from P.R. Cook, University of Oxford) were seeded on 6-well plates and cultured for 48 hours in DMEM supplemented with 10% FBS until the culture reached 100% confluency (number of cells: 1.2×10^6 per 1 well). Next, cells were treated with the DNA damaging agent H2O2 which was added directly to the growth medium (final concentration: 4 mM). The cells were incubated at 37° C. for 30 minutes in the standard cell culture incubator with CO2 level control. The control, untreated cells and the damaged cells (H2O2) were then harvested using 0.5 ml trypsin and transferred to 1.5 ml Eppendorf tubes. Afterwards, trypsin was inactivated by adding 0.5 ml DMEM supplemented with 10% FBS. Subsequently, cells were spun down in the table top centrifuge (Eppendorf centrifuge, 5417 C, rotor: F45-30-11) (1700 rpm, 5 minutes, room temperature). The cell pellet was resuspended in 10 mM Tris (pH 8.8), a small aliquot of the cells in suspension (50 μl) was transferred to a new 1.5 ml Eppendorf tube and spun down in the table top centrifuge (1 minute, 14000 rpm, room temperature). The supernatant was discarded and the washing step in the same volume (50 μl) of 10 mM Tris (pH 8.8) was repeated (centrifugation in the table top centrifuge (1 minute, 14000 rpm, room temperature)). […]
smiles,measurement,value
OO [H2O2],fluorescence intensity (mean grey value) of immobilized modified DNA,8.9±0.1 a.u.
